Source: article PMC4914250, “Cancer therapeutic approach based on conformational stabilization of mutant p53 protein by small peptides” (Oncotarget, 2016)

What follows are substances tested on p53 target genes in MDA231 (assay: Induction of p53 target genes by qRT-PCR, MDA231). Settings: score 0-6 compared to positive control.
Assay type: cell-based, human
Design: key: score 0- no effect-white; score 6- as or more effective than positive control- black
Method: RNA was obtained using Macherey-Nagel NucleoSpin RNA II Kit on cells pellet according to the manufacturer's protocol. Aliquots of 0.4-1 μg were reverse transcribed using Bio-RT 2000 (Bio-Lab) and random hexamer primers. QRT-PCR was performed on an ABI 7300 instrument (Applied Biosystems) using SYBR Green FastMix ROX (Quanta). RT-PCR primers (All primers sequences are presented 5′ to 3′): […]

Question: Which “PCR MDA231” value does the source give for “myr-PRVLPSPHTIHPSQYP [pCAP-229, myristoylated peptide, similarity to HIPK2]” here?
Answer: The value was 3.

Question: “WNHHHSTPHPAHRRRRRR [pCAP-97R, pCAP-97 with poly arginine tail]” was tested. Which “PCR MDA231” value did it give?
Answer: Its value is 3.

Question: Which “PCR MDA231” value does the source give for myr-RRLIVRILKLPNPPER [pCAP-242] here?
Answer: The value was 2.

Question: How did the “PCR MDA231” value turn out when myr-RRKHNKHRPEPDSDER [pCAP-221] was run?
Answer: Its value is 4.

Question: With myr-RRIRDPRILLLHFD [pCAP-325] as the substance, how does the “PCR MDA231” value read?
Answer: The value was 6.

Question: How did the “PCR MDA231” value turn out when SFILFIRRGRLG [pCAP-60] was run?
Answer: Its value is 2.

Question: How did the “PCR MDA231” value turn out when HANLHHT [pCAP-87] was run?
Answer: Its value is 4.

Question: Which “PCR MDA231” value does the source give for “myr-RRKILFIRLMHNKH [pCAP-227, myristoylated peptide, similarity to GAS2]” here?
Answer: Its value is 3.

Question: With YRRLLIGMMWRRRRRRRRR [pCAP-68] as the substance, how does the “PCR MDA231” value read?
Answer: Its value is 2.

Question: Which “PCR MDA231” value does the source give for WNHHHSTPHPAH [pCAP-97] here?
Answer: Its value is 3.

What follows are substances tested on recombinant WTp53 or mutp53R175H (assay: ELISA of binding of WTp53 and mutp53 to plate-conjugated peptides). Settings: peptides conjugated to wells, peptides recruited preferentially WTp53.

Question: Which “recruitment of mutp53 lower than of WTp53” value does the source give for myr-RRLIVRILKLPNPPER [pCAP-242] here?
Answer: Its value is 50%-80%.

Question: For myr-RRKHNKHRPEPDSDER [pCAP-221], which “recruitment of mutp53 lower than of WTp53” value is on record?
Answer: Its value is 50%-80%.

The substances below were run on p53 target genes p21, PUMA and Mdm2 in H1299-tsp53^V135A cells (assay: Induction of p53 target genes by qRT-PCR, H1299-tsp53 cells). Settings: peptide 5μg/ml, 18 hours, 37°C.
Assay type: cell-based, human
Method: Since p53 works primarily as a transcription factor, we tested the ability of lead peptides to induce p53 target gene activation. To that end we used H1299-tsp53^V135A cells, which express temperature sensitive (ts) p53 and allow examination of WT and mutant p53 states in the same cellular background. In the representative experiment shown in Figure 3A, cells were exposed to the indicated peptides (5μg/ml) and then either transferred to 32°C or placed back at 37°C. Cells were harvested 18 hours later, and mRNA was extracted and subjected to qRT-PCR analysis. Expression levels of 3 representative p53 target genes, p21, PUMA and Mdm2, were examined. Values were normalized to non-treated cells at 37°C, and expression at 32°C, where the ts-p53 is in a WT conformation, served as positive control. […] A similar analysis was performed on ES2 ovarian cancer cells, expressing endogenous mp53^S241F, compared to ES2 p53KO cells (Figure 3B).
Figure 3 Peptides binding to p53 and their effect on the expression of p53 target genes A. - Bar graph illustrating the effect of selected peptides on activation of mutp53 by measuring transactivation of p53 target genes as determined by qRT-PCR. H1299 cells stably transfected with mutp53 (ts) A135V were used. The indicated peptides were added directly to the medium at a concentration of 5ug/ml and cells were then either moved to 32°C or returned to 37°C. 18 hours later cells were harvested, extracted for RNA, cDNA was synthesis subjected to qrt time PCR analysis. The expression level of 3 representative p53 target genes, p21, PUMA and Mdm2, were examined. The figure illustrates the relative fold induction of transcription of the cells treated with the selected peptides as compared to non-treated cells. B. - Bar graph illustrating the effect of selected peptides on activation of mutp53 by measuring transactivation of p53 target genes as determined by qRT-PCR. ES2and ES2-p53KO cells were treated with indicated peptides 5ug/ml, for 18 hours. Cells were harvested, and cDNA was subjected to qRT-PCR analysis. Expression of 4 representative p53 target genes, p21, PUMA, Mdm2 and CD95, was examined. The figure illustrates the relative fold induction of transcription in cells treated with the selected peptides compared to non-treated cells. C. - Binding of mutp53 to promoters of representative p53 target genes in live cells, assessed by chromatin immunoprecipitation. BT-549 breast cancer cells endogenously expressing mutant p53^R249S were treated for 5 hours with a mix of 3 pCAPs - 250, 242 and 325. […] DNA cross-linked p53 was immunoprecipitated, and binding to the p53 responsive elements of the PUMA, p21, CD95 and MDM2 gene promoters was quantified by qPCR. […] Results are presented as relative absorbance at 450nm. […]

Question: How did the “expression of the p53 target genes, H1299-tsp53” value (“expression” below) turn out when “SFILFIRRGRLGRRRRRRRRR [pCAP-60R, pCAP-60 with poly arginine tail]” was run?
Answer: The value was “significant increase”.

Question: With “WNHHHSTPHPAHRRRRRR [pCAP-97R, pCAP-97 with poly arginine tail]” as the substance, how does the “expression” value read?
Answer: Its value is “significant increase”.

Question: With IRGRIIR [pCAP-54] as the substance, how does the “expression” value read?
Answer: The value was “significant increase”.

Question: For “LRCLLLLIGRVGRRRRRRRR [pCAP-24R, pCAP-24 with poly arginine tail]”, which “expression” value is on record?
Answer: The value was “significant increase”.
